Results on 11 molecules are retold here after patent publication US4851426A, “Ethoxycarbonyloxy ethyl esters of non-steroidal anti-inflammatory carboxylic acids and pharmaceutical compositions thereof” (Teva Pharmaceutical Industries, Ltd., priority 1982, dated 1989).

For data set [1], the system named is inflamed foot of the rat (brewers' yeast). The data set is described as follows: Analgesic action, pressure reaction threshold of yeast-inflamed foot (Basile-Analgesy-Meter). Type of data set: in vivo. Further details: % of control 1 hr / % of control 3 hrs: concentration or dose not given beside the values. Particulars: for % effect vs. parent compound 1 hr / % effect vs. parent compound 3 hrs: relative to parent; for % of control 1 hr / % of control 3 hrs: pressure reaction threshold, rat, oral. From the text: Male rats, weighing 95-140 g, 10 rats per experimental group. The major reason for selecting rats of this weight range is the ease in handling smaller sized animals in this particular test. Animals are fed and provided drinking water ad libitium until time of testing. […] (Note: Brewers' yeast, locally obtainable from "Abir" breweries, may be kept under refrigeration for a period of at least 6 months). […] This instrument is basically a device which […] force that increases at a constant rate (a certain number of grams per second). […] Note: In case weight discs are being used to increase the force of pressure applied, the same number of discs should be employed throughout the entire experiment for both experimental and control animals. For detailed operation of the analgesy-meter reference to the specific instructions of the instrument given in the appendix. a. […] The differences in the various Mean Group Values between treatment and control group are analyzed for statistical significance using the Student t-Test.

The nature of a further data set: Ulcerogenicity. The settings on record: rat, in vivo; dose causing UI50; female rats, oral, 5 hours; read-out: UD50. On the set-up: key to UI max: ulcer index = mean sum of individual lesion lengths per rat. Type of data set: in vivo, rat. The method, then:
(§1) Methods: Six groups of 10 female Charles River rats weighing 170-230 g were used for each drug. […] Drugs were freshly suspended in water with 1% carboxymethyl cellulose and administered by stomach tube. Rats treated were sacrificed 5 hours after oral gavage. Ulcers were evaluated under a magnifying lens, after the stomach had been dissected out, opened along the lesser curvature and rinsed.
(§2) Ulcer index (UI) for each group was calculated as the mean sum of the lengths of the individual lesions in each rat.
(§3) Apparent maximal ulcerogenicity was calculated from regression analysis of the ascending parts of each dose-response curve.

The next data set concerns stomach ulcers in rats. Put plainly: Ulcerogenicity. Type of data set: in vivo, rat. On the set-up: key to UI max: ulcer index = mean sum of individual lesion lengths per rat. The settings on record: for UI50: 50% of ulcerogenic index max, + on value: dose response curve acquired bell shape. The method, then:
as §1, §2, §3

The nature of data set [2]: hydrolysis in aqueous acidic medium (simulated gastro-intestinal juices), HPLC. Type of data set: physicochemical. The settings on record: for Ester (%): 0 min; for Ester (%), in words: same acidic conditions, 37° C.; for stability of ECOE ester against hydrolysis in acidic medium: acidic medium (simulated gastric juice). The method, then: The rates of hydrolysis of 2-(acetyloxy)benzoic acid (Aspirin) ethoxy carbonyloxy ethyl ester to salicylethoxy carbonyloxy ethyl ester in the aqueous acidic medium (simulated gastro-intestinal juices) were determined by dissolving the ester to a pre-determined concentration in the acidic medium containing THF: aqueous conc. HCl=1:1 and the rate of hydrolysis at 37° C. was measured by the HPLC method.
The rates of hydrolysis of acetyl salicylic acid ethoxy carbonyloxy ethyl ester to salicyl-ethoxy carbonyloxy ethyl ester in aqueous acidic system (simulated gastrointestinal juices) are given in the following table:
Ethoxy carbonyloxy ethyl ester of Aspirin was dissolved to a predetermined concentration in an acidic aqueous medium (simulated gastric juice)--mixture THF; aqueous conc. HCl (1:1) and the rate of hydrolysis at 37° C. was measured by HPLC method.

A short description of data set [3]: Bioavailability-pharmacokinetic profile in rats (plasma salicylate, fluorometry). Type of data set: in vivo. Particulars: in words, rat. The method, then:
Methods: Female Charles River rats weighing 200-250 g were used. Rates were starved for a 24 hour period prior to each experiment, while water was allowed ad libitum. […] Plasma salicylate concentrations were measured by fluorometry according to Frey and El-Sayed (Arch. Int. Pharmacodyn. 230: 300, 1977). […] Statistical evaluation was effected by (unpaired) Student t test.

The mark [4] stands for this setting: dose causing max ulcerogenic index.
Where [5] appears, read: dose-response of ulcer index, female rats, oral, 5 hours.
Setting [6] is: THF: aqueous conc. HCl 1:1, 37° C.

Regarding `CCOC(=O)OC(C)OC(=O)C(C)c1ccc2cc(OC)ccc2c1` (single isomer, unassigned; (+)) [Naproxen-ECOE ester, (+)-6-Methoxy-α-methyl-2-naphthaleneacetic acid 1'-ethoxycarbonyloxy ethyl ester], in data set [1], the “% effect vs. parent compound 1 hr” value came out at 108%, the “% effect vs. parent compound 3 hrs” value was 91%, the “% of control 1 hr” value was found to be 125% and the “% of control 3 hrs” value was 121%. In the data set “Ulcerogenicity”, the TD50 at 5 h was found to be 590 µmol/kg. Further, in the data set on stomach ulcers in rats, the UI50 turned out to be 32.5. In the data set on stomach ulcers in rats (setting [4]), this molecule registered a UD max of 1.0 mmol/kg. The same molecule showed a Slope in the data set on stomach ulcers in rats (setting [5]) of 63.5 ± 0.59 Uxkg/mmole. The UI max in the data set on stomach ulcers in rats (ulcerogenic index max) came out at 65.0.

Consider `CCOC(=O)OC(C)OC(=O)c1ccccc1O` (stereo not shown) [1'-ethoxy carbonyloxy ethyl ester of salicyclic acid], for which the “Ester (%)” value in data set [2] (setting [6]) was 100%. In addition, the “Ester (%), in words” value in data set [2] (150 min), in data set [2] (180 min), in data set [2] (210 min) and in data set [2] (240 min) was “unchanged” in each case. Moreover, the “stability of ECOE ester against hydrolysis in acidic medium” value in data set [2] (in words, listed as 1'-ethoxycarbonyloxy ethyl ester of salicylic acid) was “stable in acidic medium”; in data set [2] (in words, listed as Salicyl 2-ethoxy carbonyloxy ethyl ester) it was “stable”; in data set [2] (in words, listed as salicyclic acid 2-ethoxycarbonyloxy ethyl ester) it was “stable”.

For `CC(=O)Oc1ccccc1C(=O)O` [Aspirin, 2-(acetyloxy)benzoic acid, reference compound], in data set [1], the “% of control 1 hr” value amounted to 126% and the “% of control 3 hrs” value turned out to be 100%. Further, in the data set “Ulcerogenicity”, the TD50 at 5 h worked out at 20 µmol/kg. In the data set on stomach ulcers in rats (rat, in vivo), the UD max was determined as 0.4 mmol/kg and the UI max was 92.6. In the data set with stomach ulcers in rats (rat, in vivo, po), this molecule returned a Slope of 33.7 ± 11.5 Uxkg/mmole.

With `CCOC(=O)OC(C)OC(=O)c1ccccc1OC(C)=O` (stereo not shown) [Aspirin-ECOE ester, 1'-ethoxy carbonyloxy ethyl ester of 2-(acetyloxy)benzoic acid (Aspirin)], the “Ester (%)” value in data set [2] (setting [6]) was 100%. Further, in data set [2] (30 min, THF: aqueous conc. HCl 1:1, 37° C., read-out: Ester (%)), the remaining at 0.5 h was 96%. In addition, the remaining at 1 h in data set [2] (60 min, THF: aqueous conc. HCl 1:1, 37° C., read-out: Ester (%)) is 92%. Moreover, the remaining at 1.5 h in data set [2] (90 min, THF: aqueous conc. HCl 1:1, 37° C., read-out: Ester (%)) is 90%. Moreover, in data set [2] (120 min, THF: aqueous conc. HCl 1:1, 37° C., read-out: Ester (%)), the remaining at 2 h was 90%. For the same molecule, in data set [2] (150 min, THF: aqueous conc. HCl 1:1, 37° C., read-out: Ester (%)), the remaining at 2.5 h was 84%. Moreover, the remaining at 3 h in data set [2] (180 min, THF: aqueous conc. HCl 1:1, 37° C., read-out: Ester (%)) was 82%. Besides, the remaining at 3.5 h in data set [2] (210 min, THF: aqueous conc. HCl 1:1, 37° C., read-out: Ester (%)) was 76%. The “hydrolysis of acetyl group in acidic medium” value in data set [2] (in words, acetyl group, simulated gastric juices) was “readily hydrolysed off”. Besides, the “stability of ECOE ester against hydrolysis in acidic medium” value in data set [2] (in words) is “not readily hydrolysed off”. In addition, in data set [1], the “% effect vs. parent compound 1 hr” value is listed as 141%, the “% effect vs. parent compound 3 hrs” value worked out at 150%, the “% of control 1 hr” value amounted to 178% and the “% of control 3 hrs” value came to 148%. Also, in “Ulcerogenicity”, the TD50 at 5 h worked out at 20 µmol/kg. For the same molecule, the UI50 with stomach ulcers in rats is 20.5. Also, in the data set with stomach ulcers in rats (setting [4]), the UD max worked out at 0.4 mmol/kg. The Slope in the data set on stomach ulcers in rats (setting [5]) is reported as 13.7 ± 6.5 Uxkg/mmole. Also, the “ulcerogenicity compared with parent” value with stomach ulcers in rats (in words, vs parent acid) is on record as “much smaller ulcerogenic liability”. This molecule registered a UI max in the data set on stomach ulcers in rats (ulcerogenic index max) of 40.9. For the same molecule, the bioavailability of salicylate entry in data set [3] (oral 0.4 mmole/kg) is “seems complete”. Moreover, the “rate of appearance of salicylate” value in data set [3] (oral, vs plain aspirin) is recorded as “seems slower”.

In the data set with stomach ulcers in rats (rat, in vivo), `O=C(O)Cc1ccccc1Nc1c(Cl)cccc1Cl` [Diclofenac, reference compound] displayed a UD max of 0.6 mmol/kg and a UI max of 61.8. In the data set on stomach ulcers in rats (rat, in vivo, po), this molecule displayed a Slope of 31.1 ± 8.7 Uxkg/mmole.

As for `CCOC(=O)OC(C)OC(=O)Cc1ccccc1Nc1c(Cl)cccc1Cl` (stereo not shown) [Diclofenac-ECOE ester], in data set [1], the “% effect vs. parent compound 1 hr” value turned out to be 86%, the “% effect vs. parent compound 3 hrs” value worked out at 82%, the “% of control 1 hr” value turned out to be 106% and the “% of control 3 hrs” value was found to be 110%. The molecule also showed a UD max in the data set on stomach ulcers in rats (setting [4]) of 0.6 mmol/kg. The Slope with stomach ulcers in rats (setting [5]) stood at 21.1 Uxkg/mmole. This molecule also displayed a UI max in the data set with stomach ulcers in rats (ulcerogenic index max) of 34.9.

In the case of `CC(C)Cc1ccc(C(C)C(=O)O)cc1` (stereo not shown) [Ibuprofen, reference compound], in data set [1], the “% of control 1 hr” value worked out at 152% and the “% of control 3 hrs” value is on record as 145%. For the same molecule, in the data set “Ulcerogenicity”, the TD50 at 5 h was found to be 325 µmol/kg. In the data set on stomach ulcers in rats (rat, in vivo), the UD max was 2.8 mmol/kg and the UI max was found to be 52.0. In the data set on stomach ulcers in rats (rat, in vivo, po), the Slope worked out at 38.1 ± 8.0 Uxkg/mmole.

In the case of `CCOC(=O)OC(C)OC(=O)C(C)c1ccc(CC(C)C)cc1` (stereo not drawn) [Ibuprofen-ECOE ester, α-Methyl-4-(2-methylpropyl)benzene--acetic acid 1'-ethoxycarbonyloxy ethyl ester], in data set [1], the “% effect vs. parent compound 1 hr” value is listed as 115%, the “% effect vs. parent compound 3 hrs” value was found to be 89%, the “% of control 1 hr” value is reported as 176% and the “% of control 3 hrs” value is 129%. In addition, in the data set “Ulcerogenicity”, the TD50 at 5 h turned out to be 300 µmol/kg. Besides, the UI50 in the data set on stomach ulcers in rats worked out at 13.0. In the data set with stomach ulcers in rats (setting [4]), this molecule displayed a UD max of 0.7 mmol/kg. This molecule also had a Slope with stomach ulcers in rats (setting [5]) of 36.7 ± 8.5 Uxkg/mmole. The molecule further displayed a UI max in the data set on stomach ulcers in rats (ulcerogenic index max) of 26.0.

Regarding `COc1ccc2c(c1)c(CC(=O)O)c(C)n2C(=O)c1ccc(Cl)cc1` [Indomethacin, reference compound], in data set [1], the “% of control 1 hr” value was found to be 128% and the “% of control 3 hrs” value was 146%. In the data set on stomach ulcers in rats (rat, in vivo), this molecule displayed a UD max of 0.32 mmol/kg and a UI max of 60. Also, the Slope in the data set with stomach ulcers in rats (rat, in vivo, po) is given as 50 Uxkg/mmole.

Consider `CCOC(=O)OC(C)OC(=O)Cc1c(C)n(C(=O)c2ccc(Cl)cc2)c2ccc(OC)cc12` (stereo not shown) [Indomethacin-ECOE ester, 1-(p-Chlorobenzoyl)-5-methoxy-2-methylindole-3-acetic acid 1'-ethoxycarbonyloxy ethyl ester], for which, in data set [1], the “% effect vs. parent compound 1 hr” value came to 102%, the “% effect vs. parent compound 3 hrs” value was found to be 105%, the “% of control 1 hr” value was found to be 130% and the “% of control 3 hrs” value is given as 153%. In the data set with stomach ulcers in rats (setting [4]), this molecule gave a UD max of 0.32 mmol/kg. Moreover, the Slope in the data set with stomach ulcers in rats (setting [5]) is 34 ± 13.8 Uxkg/mmole. The UI max in the data set on stomach ulcers in rats (ulcerogenic index max) was 42.0.

`COc1ccc2cc([C@H](C)C(=O)O)ccc2c1` [Naproxen, reference compound]: in data set [1], the “% of control 1 hr” value is reported as 116% and the “% of control 3 hrs” value is on record as 133%. Also, the UI50 in the data set on stomach ulcers in rats is 31.0. This molecule also displayed a UD max in the data set on stomach ulcers in rats (setting [4]) of 2.0 mmol/kg. In the data set on stomach ulcers in rats (setting [5]), the Slope is on record as 41.0 ± 14.2 Uxkg/mmole. The UI max in the data set on stomach ulcers in rats (ulcerogenic index max) is on record as 62.0.
